Where two headings read alike, the source gives them in different places.
Experiments:
Type in all cases: in vivo
[1] = test system: boll weevil (Anthonomus grandis); experiment: B.2 Boll weevil, 96-well microtiter plate diet test with eggs; conditions: for mortality at 90 ppm / mortality at 2500 ppm / mortality at 30 ppm / mortality at 9.9 ppm: Anthonomus grandis; for mortality at 2500 ppm: 120 h, egg and larval mortality after 5 days, read-out: mortality in comparison with untreated controls; for mortality at 30 ppm: comparative experiment C.3; for mortality at 9.9 ppm: comparative experiment C.9
Method: (§1) If not otherwise specified, the test solutions were prepared as follow: The active compound was dissolved at the desired concentration in a mixture of 1:1 (vol:vol) distilled water:acetone. The test solution was prepared on the day of use.
B.2 Boll Weevil (Anthonomus grandis)
For evaluating control of boll weevil (Anthonomus grandis) the test unit consisted of 96-well-microtiter plates containing an insect diet and 5-10 A. grandis eggs.
The compounds were formulated using a solution containing 75% v/v water and 25% v/v DMSO. Different concentrations of formulated compounds were sprayed onto the insect diet at 5 μl, using a custom-built micro atomizer, at two replications.
After application, microtiter plates were incubated at about 25±1° C. and about 75±5% relative humidity for 5 days. Egg and larval mortality was then visually assessed.

[2] = test system: yellow fever mosquito (Aedes aegypti); experiment: whole plant or invertebrate; conditions: for mortality at 2500 ppm: 48 h, larval mortality after 2 days, read-out: mortality in comparison with untreated controls
Method: as §1
B.5 Yellow Fever Mosquito (Aedes aegypti)
For evaluating control of yellow fever mosquito (Aedes aegypti) the test unit consisted of 96-well-microtiter plates containing 200 μl of tap water per well and 5-15 freshly hatched A. aegypti larvae.
The active compounds were formulated using a solution containing 75% (v/v) water and 25% (v/v) DMSO. Different concentrations of formulated compounds or mixtures were sprayed onto the insect diet at 2.5 μl, using a custom-built micro atomizer, at two replications.
After application, microtiter plates were incubated at 281° C., 80±5% RH for 2 days. Larval mortality was then visually assessed.

[3] = test system: tobacco budworm (Heliothis virescens); experiment: B.1 Tobacco budworm, 96-well microtiter plate diet test with eggs; conditions: for mortality at 100 ppm: comparative experiment C.6; for mortality at 2500 ppm: 120 h, egg and larval mortality after 5 days, read-out: mortality in comparison with untreated controls; for mortality at 274 ppm: comparative experiment C.9
Method: as §1
B.1 Tobacco Budworm (Heliothis virescens)
For evaluating control of tobacco budworm (Heliothis virescens) the test unit consisted of 96-well-microtiter plates containing an insect diet and 15-25 H. virescens eggs.
The compounds were formulated using a solution containing 75% v/v water and 25% v/v DMSO. Different concentrations of formulated compounds were sprayed onto the insect diet at 10 μl, using a custom-built micro atomizer, at two replications.
After application, microtiter plates were incubated at about 28±1° C. and about 80±5% relative humidity for 5 days. Egg and larval mortality was then visually assessed.

[4] = test system: green peach aphid (Myzus persicae); experiment: B.6 Green peach aphid, systemic test with artificial diet under membrane; conditions: for mortality at 90 ppm: comparative experiment C.3
Method: as §1
B.6 Green Peach Aphid (Myzus persicae)
For evaluating control of green peach aphid (Myzus persicae) through systemic means, the test unit consisted of 96-well-microtiter plates containing liquid artificial diet under an artificial membrane.
The compounds were formulated using a solution containing 75% v/v water and 25% v/v DMSO. Different concentrations of formulated compounds were pipetted into the aphid diet, using a custom built pipetter, at two replications.
After application, 5-8 adult aphids were placed on the artificial membrane inside the microtiter plate wells. The aphids were then allowed to suck on the treated aphid diet and incubated at about 23±1° C. and about 50±5% relative humidity for 3 days. Aphid mortality and fecundity was then visually assessed.

[5] = test system: Southern armyworm (Spodoptera eridania), 2nd instar larvae; experiment: B.3 Southern armyworm, 2nd instar larvae, foliar spray on lima bean plants; conditions: 96 h, 4 days after treatment, read-out: mortality in comparison with untreated controls
Method: B.3 Southern Armyworm (Spodoptera eridania), 2nd Instar Larvae
The active compounds were formulated by a Tecan liquid handler in 100% cyclohexanone as a 10,000-ppm solution supplied in tubes. The 10,000-ppm solution was serially diluted in 100% cyclohexanone to make interim solutions. These served as stock solutions for which final dilutions were made by the Tecan in 50% acetone:50% water (v/v) into 10 or 20 ml glass vials. A non-ionic surfactant (Kinetic@) was included in the solution at a volume of 0.01% (v/v). The vials were then inserted into an automated electrostatic sprayer equipped with an atomizing nozzle for application to plants/insects. Lima bean plants (variety Sieva) were grown 2 plants to a pot and selected for treatment at the 1st true leaf stage. Test solutions were sprayed onto the foliage by an auto-mated electrostatic plant sprayer equipped with an atomizing spray nozzle. The plants were dried in the sprayer fume hood and then removed from the sprayer. Each pot was placed into perforated plastic bags with a zip closure. Ten to 11 armyworm larvae were placed into the bag and the bags zipped closed. Test plants were maintained in a growth room at about 25° C. and about 20-40% relative humidity for 4 days, avoiding direct exposure to fluorescent light (14:10 light:dark photoperiod) to prevent trapping of heat inside the bags. Mortality and reduced feeding were assessed 4 days after treatment, compared to untreated control plants.

[6] = 90 ppm, comparative experiment C.6
[7] = 90 ppm, comparative experiment C.8
[8] = comparative experiment C.8, read-out: B.6, 2500 ppm (mortality)
[9] = 72 h, aphid mortality after 3 days, read-out: mortality in comparison with untreated controls
[10] = 90 ppm, comparative experiment C.7

Row | Structure (SMILES) | mortality at 2500 ppm [1] | mortality at 2500 ppm [2] | mortality at 2500 ppm [3] | mortality at 2500 ppm [4, 9] | other results
1 | CC(NC(=O)c1cc(C(F)(F)F)cc(C(F)(F)F)c1)c1nccnc1-n1cc(C(F)(F)F)cn1 (centres unmarked) [WO2021/069575 I-92, reference compound] | – | – | – | – | B.2, 90 ppm (mortality) [1, 6]: 0%; mortality at 90 ppm ([1]; 90 ppm, comparative experiment C.4): 0%; mortality at 90 ppm ([2]; 90 ppm, comparative experiment C.4, read-out: B.5, 90 ppm (mortality)): 0%; mortality at 100 ppm [3]: 50%; mortality at 30 ppm ([4]; comparative experiment C.4): 0%
2 | CC(NC(=O)c1cc(C(F)(F)F)cc(C(F)(F)F)c1)c1nccnc1-c1cn(-c2ccn(C)n2)nn1 (centres unmarked) [WO2021/259997 I-12, reference compound] | – | – | – | – | mortality at 90 ppm [1, 7]: 0%; mortality at 2500 ppm [4, 8]: 0%
3 | CC(NC(=O)c1cc(C(F)(F)F)cc(C(F)(F)F)c1)c1nccnc1-n1cc(-c2cccnc2)nn1 (centres unmarked) [I-9] | ≥ 75% | ≥ 75% | ≥ 75% | ≥ 75% | mortality at 30 ppm [1]: 100%; mortality at 90 ppm [4]: 100%; mortality at 300 ppm [5]: ≥ 75%
4 | CC(NC(=O)c1cc(Cl)cc(S(C)(=O)=O)c1)c1nccnc1-n1nccn1 (centres unmarked) [WO2021/259997 I-1, reference compound] | – | – | – | – | mortality at 9.9 ppm [1]: 0%; mortality at 274 ppm [3]: 0%
5 | CC(NC(=O)c1cc(C(F)(F)F)cc(C(F)(F)F)c1)c1nccnc1-n1cc(S(=O)(=O)C2CC2)cn1 (centres unmarked) [I-65, N-[1-[3-(4-cyclopropylsulfonylpyrazol-1-yl)pyrazin-2-yl]ethyl]-3,5-bis(trifluoromethyl)benzamide] | ≥ 75% | ≥ 75% | ≥ 75% | ≥ 75% | –
6 | CSc1cnn(-c2c(Cl)ccnc2C(C)NC(=O)c2cc(C(F)(F)F)cc(C(F)(F)F)c2)c1 (centres unmarked) [I-26, N-[1-[4-chloro-3-(4-methylsulfanylpyrazol-1-yl)-2-pyridyl]ethyl]-3,5-bis(trifluoromethyl)benzamide] | ≥ 75% | ≥ 75% | ≥ 75% | – | mortality at 300 ppm [5]: ≥ 75%
7 | CC(NC(=O)c1cc(C(F)(F)F)cc(C(F)(F)F)c1)c1nccc(F)c1-n1cc(S(C)(=O)=O)cn1 (centres unmarked) [I-53, N-[1-[4-fluoro-3-(4-methylsulfonylpyrazol-1-yl)-2-pyridyl]ethyl]-3,5-bis(trifluoromethyl)benzamide] | ≥ 75% | ≥ 75% | ≥ 75% | – | –
8 | CC(NC(=O)c1cc(Cl)cc(S(C)(=O)=O)c1)c1nccnc1-n1ncc(-c2ccccn2)n1 (centres unmarked) [I-73] | ≥ 75% | ≥ 75% | ≥ 75% | ≥ 75% | mortality at 9.9 ppm [1]: 100%; mortality at 274 ppm [3]: 100%
9 | CC(NC(=O)c1cc(C(F)(F)F)cc(C(F)(F)F)c1)c1nccnc1-n1cc(Cl)cn1 (centres unmarked) [WO2021/069575 I-96, reference compound] | – | – | – | – | mortality at 90 ppm ([1]; 90 ppm, comparative experiment C.5): 50%; mortality at 80 ppm ([2]; 80 ppm, comparative experiment C.5, read-out: B.5, 80 ppm (mortality)): 0%; mortality at 2500 ppm ([4]; comparative experiment C.5, read-out: B.6, 2500 ppm (mortality)): 0%
10 | CC(NC(=O)c1cc(C(F)(F)F)cc(C(F)(F)F)c1)c1nccnc1-n1ncc(-c2ccn(C)n2)n1 (centres unmarked) [I-29, N-[1-[3-[4-(1-methylpyrazol-3-yl)triazol-2-yl]pyrazin-2-yl]ethyl]-3,5-bis(trifluoromethyl)benzamide] | ≥ 75% | ≥ 75% | ≥ 75% | ≥ 75% | mortality at 90 ppm [1, 7]: 100%; mortality at 2500 ppm [4, 8]: 100%
11 | Cc1cnn(-c2nccnc2C(C)NC(=O)c2cc(C(F)(F)F)cc(C(F)(F)F)c2)n1 (centres unmarked) [WO2021/037614 P1, reference compound] | – | – | – | – | mortality at 90 ppm ([3]; comparative experiment C.1): 25%; mortality at 30 ppm ([4]; comparative experiment C.1): 25%
12 | CC[S+]([O-])c1cnn(-c2nccnc2C(C)NC(=O)c2cc(C(F)(F)F)cc(C(F)(F)F)c2)c1 (centres unmarked) [I-58] | ≥ 75% | ≥ 75% | ≥ 75% | ≥ 75% | mortality at 90 ppm [1, 10]: 100%; mortality at 90 ppm ([3]; comparative experiment C.7): 100%
13 | Cc1cn(-c2nccnc2C(C)NC(=O)c2cc(C(F)(F)F)cc(C(F)(F)F)c2)nn1 (centres unmarked) [WO2021/037614 P41, reference compound] | – | – | – | – | mortality at 30 ppm [1]: 0%; mortality at 90 ppm [4]: 0%
14 | CC(NC(=O)c1cc(C(F)(F)F)cc(C(F)(F)F)c1)c1nccc(Cl)c1-n1cc([S+](C)[O-])cn1 (centres unmarked) [I-28, N-[1-[4-chloro-3-(4-methylsulfinylpyrazol-1-yl)-2-pyridyl]ethyl]-3,5-bis(trifluoromethyl)benzamide] | ≥ 75% | – | – | ≥ 75% | mortality at 300 ppm [5]: ≥ 75%
15 | CC(NC(=O)c1cc(C(F)(F)F)cc(C(F)(F)F)c1)c1nccnc1-n1cc(SC(F)(F)F)cn1 (centres unmarked) [I-60, 3,5-bis(trifluoromethyl)-N-[1-[3-[4-(trifluoromethyl-sulfanyl)pyrazol-1-yl]pyrazin-2-yl]ethyl]benzamide] | ≥ 75% | ≥ 75% | ≥ 75% | – | mortality at 300 ppm [5]: ≥ 75%
16 | CC(NC(=O)c1cc(C(F)(F)F)cc(C(F)(F)F)c1)c1nccnc1-n1cc([S+]([O-])C(C)C)cn1 (centres unmarked) [I-69, N-[1-[3-(4-isopropylsulfinylpyrazol-1-yl)pyrazin-2-yl]ethyl]-3,5-bis(trifluoromethyl)benzamide] | ≥ 75% | ≥ 75% | ≥ 75% | ≥ 75% | –
17 | CC(NC(=O)c1cc(C(F)(F)F)cc(C(F)(F)F)c1)c1nccnc1-n1cc(S(=O)(=O)C(F)(F)F)cn1 (centres unmarked) [I-55, 3,5-bis(trifluoromethyl)-N-[1-[3-[4-(trifluoromethylsulfonyl)pyrazol-1-yl]pyrazin-2-yl]ethyl]benzamide] | ≥ 75% | ≥ 75% | ≥ 75% | – | mortality at 90 ppm [1, 6]: 100%; mortality at 100 ppm [3]: 100%
18 | CC(NC(=O)c1cc(C(F)(F)F)cc(C(F)(F)F)c1)c1nccnc1-n1cc(S(=O)(=O)C(C)C)cn1 (centres unmarked) [I-67, N-[1-[3-(4-isopropylsulfonylpyrazol-1-yl)pyrazin-2-yl]ethyl]-3,5-bis(tri-fluoromethyl)benzamide] | ≥ 75% | ≥ 75% | ≥ 75% | ≥ 75% | –
19 | CC(C)Sc1cnn(-c2nccnc2C(C)NC(=O)c2cc(C(F)(F)F)cc(C(F)(F)F)c2)c1 (centres unmarked) [I-48, N-[1-[3-(4-isopropylsulfanylpyrazol-1-yl)pyrazin-2-yl]ethyl]-3,5-bis(trifluoromethyl)benzamide] | ≥ 75% | – | ≥ 75% | – | mortality at 90 ppm [1, 10]: 100%; mortality at 90 ppm ([3]; comparative experiment C.7): 100%; mortality at 300 ppm [5]: ≥ 75%
